Publication PMC5018819 (Scientific Reports, 2016)
Read-outs that look alike come from different tables or passages of the source.

Legend:
HsCKα1 [1] = target: T1, HsCKα1 (Homo sapiens, UniProt P35790); experiment: IC50 determination, spectrophotometric CK/EK enzyme assay; format: biochemical; settings: 0.5 mM each substrate
T1 construct: made in house
Method: (§1) A continuous spectrophotometric 96-well plate assay was established for CK and EK activity based on an assay described. […] The reaction was initiated by addition of enzyme or substrate, as appropriate, and the rate of reaction was monitored by following the decrease in absorbance at 341 nm for 10 min at room temperature using a Thermo Multiska spectrophotometer. Experiments were carried out to ensure that coupling enzymes were not rate-limiting under any of the conditions used and control experiments lacking substrates and/or enzyme were carried out to correct for any background rate.
(§2) The enzyme was pre-incubated for 5 min with varying concentrations of inhibitor prior to reaction being started by addition of 0.5 mM each substrate. The IC50 values were estimated using Grafit 5 (Erithacus Software Ltd).

PfCK [2] = target: T2, PfCK (Plasmodium falciparum, UniProt Q8IM71); experiment: as above; format: biochemical; settings: for IC50: 0.5 mM each substrate
T2 construct: made in house
T2 sequence (Q8IM71 1-440): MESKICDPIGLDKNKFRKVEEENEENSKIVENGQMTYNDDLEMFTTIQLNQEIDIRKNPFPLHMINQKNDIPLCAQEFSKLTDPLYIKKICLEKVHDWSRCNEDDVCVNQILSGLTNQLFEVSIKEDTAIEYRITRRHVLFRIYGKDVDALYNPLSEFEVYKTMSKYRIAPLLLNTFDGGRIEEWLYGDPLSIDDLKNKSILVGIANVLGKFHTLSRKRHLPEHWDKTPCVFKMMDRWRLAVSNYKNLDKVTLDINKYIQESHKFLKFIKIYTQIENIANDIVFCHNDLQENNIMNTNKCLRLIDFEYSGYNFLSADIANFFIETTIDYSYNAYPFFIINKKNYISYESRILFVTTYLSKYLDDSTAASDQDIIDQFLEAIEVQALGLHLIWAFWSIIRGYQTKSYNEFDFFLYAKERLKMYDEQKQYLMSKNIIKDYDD
Method: as §1, §2

HsCKα1 [3] = target: T1, HsCKα1; experiment: Kd by tryptophan fluorescence quenching; format: binding; settings: 25 °C, enzyme 1 μM
Method: (§3) Compounds BR23 and BR25 were prepared in 100% DMSO. The Kds for compounds BR23 and BR25 against HsCKα1 and PfCK were measured by monitoring the quenching of tryptophan fluorescence. All experiments were carried out in a Cary Eclipse spectrofluorometer at 25 °C with the enzymes at 1 μM, and concentrations of compounds varying from 0.05 to 8 μM for HsCKα1, and from 0.05 to 16 μM for PfCK in 25 mM Tris, 150 mM NaCl, pH 7.5. Fluorescence emission spectra were recorded in the 300–400 nm range with an excitation wavelength of 280 nm, with slit width of 5 nm. Controls were determined by incubating the enzymes with equivalent amounts of DMSO. As indicated previously, data analysis was performed in Prism (GraphPad software) considering a model with a single binding site (Eq. 1), where F0 is the intrinsic fluorescence of the enzyme in the absence of quencher (Q), F1 is the observed fluorescence at a given quencher concentration, fa is the fractional degree of fluorescence, and Kd is the dissociation constant.

PfCK [4] = target: T2, PfCK; experiment: Kd by tryptophan fluorescence quenching; format: binding; settings: for Kd: tryptophan fluorescence quenching, 25 °C, enzyme 1 μM
Method: as §3

P. falciparum = system: P. falciparum; parameters: method as in PMID 25089811; settings: blood stages of the parasite, in vitro; read-out: IC50 against P. falciparum; cited from earlier work
[5] = Etn as substrate, read-out: IC50 HsCK, Etn
[6] = read-out: IC50 HsCK, Cho, Cho as substrate
[7] = Etn as substrate, read-out: IC50 PfCK, Etn
[8] = read-out: IC50 PfCK, Cho, Cho as substrate

T1 sequence (P35790 whole entry): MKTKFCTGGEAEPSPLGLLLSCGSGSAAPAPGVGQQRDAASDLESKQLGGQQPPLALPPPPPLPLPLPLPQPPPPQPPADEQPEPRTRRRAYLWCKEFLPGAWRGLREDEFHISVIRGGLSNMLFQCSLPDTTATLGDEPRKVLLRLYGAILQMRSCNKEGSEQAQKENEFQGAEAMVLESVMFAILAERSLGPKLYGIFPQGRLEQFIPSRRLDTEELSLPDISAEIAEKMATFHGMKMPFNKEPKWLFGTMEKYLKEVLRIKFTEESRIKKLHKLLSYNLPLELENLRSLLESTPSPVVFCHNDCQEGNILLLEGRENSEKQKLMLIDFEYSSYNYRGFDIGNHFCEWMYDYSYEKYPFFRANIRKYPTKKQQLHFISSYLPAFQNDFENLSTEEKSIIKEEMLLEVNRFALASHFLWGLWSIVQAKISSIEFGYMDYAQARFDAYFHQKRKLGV

| Compound | IC50 (HsCKα1 [1]; [5]) [nM] | IC50 (HsCKα1 [1]; [6]) [nM] | inhibition towards PfCKs choline kinase activity (in words) (PfCK [2]; Cho as substrate) | IC50 (PfCK [2]; [7]) [nM] | IC50 (PfCK [2]; [8]) [nM] | Kd (HsCKα1 [3]) [nM] | affinity for PfCK relative to BR23 (PfCK [4]; ratio of Kds) [fold] | Kd (PfCK [4]) [nM] | IC50 (P. falciparum) [nM] |
| --- | --- | --- | --- | --- | --- | --- | --- | --- | --- |
| CN(C)c1cc[n+](Cc2ccc(CCCCc3ccc(C[n+]4ccc(N5CCCC5)cc4)cc3)cc2)cc1.[Br-].[Br-] [BR25] | 180 | 560 | moderate inhibition | 6000 | 103000 | 352 ± 20 | 3 | 415 ± 81 | 2 |
| CN(C)c1cc[n+](Cc2ccc(-c3ccc(C[n+]4ccc(N5CCCC5)cc4)cc3)cc2)cc1.[Br-].[Br-] [BR23] | 230 | 580 | moderate inhibition | 12000 | 276000 | 521 ± 200 | – | 1400 | 3 |
